# Data taken from ChEMBL document CHEMBL5055666, “Tyrosine-Derived Novel Benzoxazine Active in a Rat Syngenic Mammary Tumor Model of Breast Cancer” (J Med Chem, 2021).
# Active and inactive are the calls of the source. The rule behind the calls is not given here.
# Tests used:
# MDA-MB-231 [1] = assay: Disruption of mitochondrial membrane integrity in human MDA-MB-231 cells assessed as reduction in mitochondrial membrane potential at 0.125 to 1 uM by JC-1 staining based flow cytometry analysis; assay type: functional, cell-based; conditions: dose 0.125-1 µM
# [2] = Half life in Sprague-Dawley rat at 5 mg/kg, po measured upto 24 hrs; assay type: ADME, organism-based; conditions: in vivo
# Rattus norvegicus [3] = assay: Toxicity in Sprague-Dawley rat inoculated with rat LA7 cells assessed as increase in uterine tissue at 5 to 20 mg/kg administered daily for 21 days; assay type: organism-based; conditions: la7, 504 h, dose 5-20 mg/kg, time 21 day
# MDA-MB-231 [4] = assay: Induction of intracellular ROS generation in human MDA-MB-231 cells at 0.125 to 1 uM incubated for 24 hrs by DCFH-DA staining-based flow cytometric analysis; assay type: functional, cell-based; conditions: dose 0.125-1 µM
# LA7 [5] = assay: Antiproliferative activity against rat LA7 cells assessed as inhibition of cell growth incubated for 48 hrs by MTT assay; assay type: functional, cell-based; conditions: LA7, 48 h
# [6] = Cmax in Sprague-Dawley rat at 0.5 mg/kg, iv measured upto 24 hrs; assay type: ADME, organism-based; design: time < 24 hrs, dose 0.5 mg/kg, route iv; conditions: in vivo
# [7] = Mean residence time in Sprague-Dawley rat at 0.5 mg/kg, iv measured upto 24 hrs; assay type: ADME, organism-based; conditions: in vivo
# [8] = Apparent oral volume of distribution in Sprague-Dawley rat at 0.5 mg/kg, iv measured upto 24 hrs; assay type: ADME, organism-based; conditions: in vivo
# MCF7 [9] = assay: Induction of intracellular ROS generation in human MCF7 cells at 0.125 to 1 uM incubated for 24 hrs by DCFH-DA staining-based flow cytometric analysis; assay type: functional, cell-based; conditions: dose 0.125-1 µM
# [10] = Cmax in Sprague-Dawley rat at 5 mg/kg, po measured upto 24 hrs; assay type: ADME, organism-based; design: time < 24 hrs, dose 5 mg/kg, route po; conditions: in vivo
# LA7 [11] = assay: Antiproliferative activity against rat LA7 cells assessed as inhibition of cell growth incubated for 72 hrs by MTT assay; assay type: functional, cell-based; conditions: LA7, 72 h
# MCF7 [12] = assay: Disruption of mitochondrial membrane integrity in human MCF7 cells assessed as reduction in mitochondrial membrane potential at 0.125 to 1 uM by JC-1 staining based flow cytometry analysis; assay type: functional, cell-based; conditions: dose 0.125-1 µM
# MDA-MB-231 [13] = assay: Induction of cell damage in human MDA-MB-231 cells assessed as increase in LDH release at 0.125 to 100 uM; assay type: functional, cell-based; conditions: dose 0.125-100 µM
# MCF7 [14] = assay: Induction of cell damage in human MCF7 cells assessed as increase in LDH release at 0.125 to 100 uM; assay type: functional, cell-based; conditions: dose 0.125-100 µM
# MCF7 [15] = assay: Induction of apoptosis in human MCF7 cells assessed as increase in total apoptotic population at 0.125 to 1 uM after 24 to 48 hrs by Annexin V-FITC/propidium iodide staining based flow cytometric analysis; assay type: functional, cell-based; conditions: dose 0.125-1 µM, time 24-48 hrs
# MCF7 [16] = assay: Antiproliferative activity against human MCF7 cells assessed as inhibition of cell growth incubated for 24 hrs by MTT assay; assay type: functional, cell-based; conditions: MCF7, 24 h
# MCF7 [17] = assay: Antiproliferative activity against human MCF7 cells assessed as inhibition of cell growth incubated for 48 hrs by MTT assay; assay type: functional, cell-based; conditions: MCF7, 48 h
# [18] = Tmax in Sprague-Dawley rat at 5 mg/kg, po measured upto 24 hrs; assay type: ADME, organism-based; conditions: in vivo
# [19] = AUC(0 to infinity) in Sprague-Dawley rat at 5 mg/kg, po measured upto 24 hrs; assay type: ADME, organism-based; design: dose 5 mg/kg, time < 24 hrs, route po; conditions: in vivo
# LA7 [20] = assay: Antiproliferative activity against rat LA7 cells assessed as inhibition of cell growth incubated for 24 hrs by MTT assay; assay type: functional, cell-based; conditions: LA7, 24 h
# MCF7 [21] = assay: Induction of apoptosis in human MCF7 cells assessed as nuclear blabbing after 24 hrs by DAPI staining based fluorescent microscopic analysis; assay type: functional, cell-based; conditions: dose 0.125-1 µM
# MDA-MB-231 [22] = assay: Antiproliferative activity against human MDA-MB-231 cells assessed as inhibition of cell growth incubated for 48 hrs by MTT assay; assay type: functional, cell-based; conditions: MDA-MB-231, 48 h
# MCF-10A [23] = assay: Antiproliferative activity against human MCF-10A cells assessed as inhibition of cell growth incubated for 72 hrs by MTT assay; assay type: cell-based
# MDA-MB-231 [24] = assay: Induction of apoptosis in human MDA-MB-231 cells assessed as nuclear condensation after 24 hrs by DAPI staining based fluorescent microscopic analysis; assay type: functional, cell-based; conditions: dose 0.125-1 µM
# [25] = Induction of cell damage in human HEK293 cells assessed as increase in LDH release at > 20 uM; assay type: cell-based; conditions: hek293, 20 µM
# MCF7 [26] = assay: Induction of apoptosis in human MCF7 cells assessed as nuclear condensation after 24 hrs by DAPI staining based fluorescent microscopic analysis; assay type: functional, cell-based; conditions: dose 0.125-1 µM
# MCF7 [27] = assay: Downregulation of ERalpha expression in human MCF7 cells after 24 hrs by immunoblot analysis; assay type: functional, cell-based
# MCF7 [28] = assay: Upregulation of ERbeta expression in human MCF7 cells after 24 hrs by immunoblot analysis; assay type: functional, cell-based; conditions: dose 500-5 µM
# MDA-MB-231 [29] = assay: Induction of cell cycle arrest in human MDA-MB-231 cells assessed as increase in sub-diploid population at 0.125 to 1 uM after 24 to 48 hrs by propidium iodide staining based flow cytometric analysis; assay type: functional; conditions: dose 0.125-1 µM, time 24-48 hrs
# Rattus norvegicus [30] = assay: Toxicity in Sprague-Dawley rat inoculated with rat LA7 cells assessed as change in organ weight at 5 to 20 mg/kg administered daily for 21 days; assay type: organism-based; conditions: la7, 504 h, dose 5-20 mg/kg, time 21 day
# [31] = Tmax in Sprague-Dawley rat at 0.5 mg/kg, iv measured upto 24 hrs; assay type: ADME, organism-based; conditions: in vivo
# [32] = Half life in Sprague-Dawley rat at 0.5 mg/kg, iv measured upto 24 hrs; assay type: ADME, organism-based; conditions: in vivo
# [33] = Mean residence time in Sprague-Dawley rat at 5 mg/kg, po measured upto 24 hrs; assay type: ADME, organism-based; conditions: in vivo
# [34] = Drug release in tris buffer pH 7.4 after 10 min by membrane dialysis method; assay type: physicochemical; conditions: pH 7.4, 10 min
# [35] = AUC(0 to infinity) in Sprague-Dawley rat at 0.5 mg/kg, iv measured upto 24 hrs; assay type: ADME, organism-based; design: time < 24 hrs, dose 0.5 mg/kg, route iv; conditions: in vivo
# [36] = Apparent oral clearance in Sprague-Dawley rat at 5 mg/kg, po measured upto 24 hrs; assay type: ADME, organism-based; conditions: in vivo
# MCF7 [37] = assay: Antiproliferative activity against human MCF7 cells assessed as inhibition of cell growth incubated for 72 hrs by MTT assay; assay type: functional, cell-based; conditions: MCF7, 72 h
# MDA-MB-231 [38] = assay: Induction of apoptosis in human MDA-MB-231 cells assessed as increase in total apoptotic population at 0.125 to 1 uM after 24 to 48 hrs by Annexin V-FITC/propidium iodide staining based flow cytometric analysis; assay type: functional, cell-based; conditions: dose 0.125-1 µM, time 24-48 hrs
# MDA-MB-231 [39] = assay: Induction of apoptosis in human MDA-MB-231 cells assessed as nuclear blabbing after 24 hrs by DAPI staining based fluorescent microscopic analysis; assay type: functional, cell-based; conditions: dose 0.125-1 µM
# MDA-MB-231 [40] = assay: Antiproliferative activity against human MDA-MB-231 cells assessed as inhibition of cell growth incubated for 72 hrs by MTT assay; assay type: functional, cell-based; conditions: MDA-MB-231, 72 h
# [41] = Apparent oral volume of distribution in Sprague-Dawley rat at 5 mg/kg, po measured upto 24 hrs; assay type: ADME, organism-based; conditions: in vivo
# [42] = Apparent oral clearance in Sprague-Dawley rat at 0.5 mg/kg, iv measured upto 24 hrs; assay type: ADME, organism-based; conditions: in vivo
# MDA-MB-231 [43] = assay: Antiproliferative activity against human MDA-MB-231 cells assessed as inhibition of cell growth incubated for 24 hrs by MTT assay; assay type: functional, cell-based; conditions: MDA-MB-231, 24 h
# MCF-10A [44] = assay: Antiproliferative activity against human MCF-10A cells assessed as inhibition of cell growth incubated for 24 hrs by MTT assay; assay type: cell-based
# Rattus norvegicus [45] = assay: Toxicity in Sprague-Dawley rat inoculated with rat LA7 cells assessed as mortality at 5 to 20 mg/kg administered daily for 21 days; assay type: organism-based; conditions: la7, 504 h, dose 5-20 mg/kg, time 21 day
# LA7 [46] = assay: Antitumor activity against rat LA7 cells inoculated in Sprague-Dawley rat assessed as inhibition of tumor growth at 5 to 20 mg/kg administered daily for 21 days; assay type: functional, organism-based; conditions: dose 5-20 mg/kg, time 21.0 day
# LA7 [47] = assay: Antitumor activity against rat LA7 cells inoculated in Sprague-Dawley rat assessed as reduction in formation of neoplastic lesions in lungs at 5 to 20 mg/kg administered daily for 21 days; assay type: functional, organism-based; conditions: dose 5-20 mg/kg, time 21.0 day
# MCF7 [48] = assay: Induction of cell cycle arrest in human MCF7 cells assessed as increase in sub-diploid population at 0.125 to 1 uM after 24 to 48 hrs by propidium iodide staining based flow cytometric analysis; assay type: functional; conditions: dose 0.125-1 µM, time 24-48 hrs
smiles,measurement,setting,value
COc1ccc(C[C@H]2COc3ccccc3N2Cc2ccc(OCCN3CCCC3)cc2)cc1,Activity,MDA-MB-231 [1],Active
same,half-life,[2],8.97 h
same,Activity,Rattus norvegicus [3],Non-Toxic
same,Activity,MDA-MB-231 [4],Active
same,IC50,LA7 [5],0.24 µM
same,Cmax,[6],0.0496 µg/mL
same,MRT,[7],4.66 h
same,Vd/F,[8],19.9 L/kg
same,Activity,MCF7 [9],Active
same,Cmax,[10],0.0432 µg/mL
same,IC50,LA7 [11],0.19 µM
same,Activity,MCF7 [12],Active
same,Activity,MDA-MB-231 [13],Active
same,Activity,MCF7 [14],Active
same,Activity,MCF7 [15],Active
same,IC50,MCF7 [16],0.2 µM
same,IC50,MCF7 [17],0.3 µM
same,Tmax,[18],0.25 h
same,AUC(0-inf),[19],0.506 µg·h/mL
same,IC50,LA7 [20],0.66 µM
same,Activity,MCF7 [21],Dose-dependent effect
same,IC50,MDA-MB-231 [22],0.7 µM
same,IC50,MCF-10A [23],> 18 µM
same,Activity,MDA-MB-231 [24],Dose-dependent effect
same,Activity,[25],Toxic
same,Activity,MCF7 [26],Dose-dependent effect
same,Activity,MCF7 [27],Dose-dependent effect
same,Activity,MCF7 [28],Dose-dependent effect
same,Activity,MDA-MB-231 [29],Dose-dependent effect
same,Activity,Rattus norvegicus [30],Non-Toxic
same,Tmax,[31],0.83 h
same,half-life,[32],3.42 h
same,MRT,[33],16.1 h
same,Drug transport,[34],90%
same,AUC(0-inf),[35],0.123 µg·h/mL
same,CL/F,[36],10.5 L/h/kg
same,IC50,MCF7 [37],0.25 µM
same,Activity,MDA-MB-231 [38],Active
same,Activity,MDA-MB-231 [39],Dose-dependent effect
same,IC50,MDA-MB-231 [40],0.7 µM
same,Vd/F,[41],140 L/kg
same,CL/F,[42],4.13 L/h/kg
same,IC50,MDA-MB-231 [43],0.65 µM
same,IC50,MCF-10A [44],> 25 µM
same,Activity,Rattus norvegicus [45],Non-Toxic
same,Activity,LA7 [46],Active
same,Activity,LA7 [47],Active
same,Activity,MCF7 [48],Dose-dependent effect
